Measured values published in ChEMBL document CHEMBL4177750, “Imidazopyrazinones (IPYs): Non-Quinolone Bacterial Topoisomerase Inhibitors Showing Partial Cross-Resistance with Quinolones” (J Med Chem, 2018).
Converted amounts (≈) assume the structure as drawn. The source made the active and inactive calls. The rule behind the calls is not given here.

Legend:
Escherichia coli [1] = assay: Antibacterial activity against ESBL producing Escherichia coli ATCC 35218 after 20 to 22 hrs; type: functional
Escherichia coli [2] = assay: Antibacterial activity against Escherichia coli K-12 MG1655 after 20 to 22 hrs; settings: K-12 substr. MG1655
Escherichia coli [3] = assay: Antibacterial activity against tolC-deficient Escherichia coli K-12 MG1655 after 20 to 22 hrs; type: functional; settings: K-12 substr. MG1655
Escherichia coli [4] = assay: Antibacterial activity against hyperpermeable Escherichia coli D22 harboring LpxC mutant after 20 to 22 hrs
Pseudomonas aeruginosa [5] = assay: Antibacterial activity against Pseudomonas aeruginosa PAO1 after 20 to 22 hrs; type: functional
Pseudomonas aeruginosa [6] = assay: Antibacterial activity against Pseudomonas aeruginosa PAO750 harboring mexAB-oprM/mexCD-oprJ/mexEF-oprN/mexXY/opmH/mexJK/pscC deletion mutant after 20 to 22 hrs; type: functional
Staphylococcus aureus [7] = assay: Antibacterial activity against methicillin-resistant Staphylococcus aureus ATCC 33592 after 20 to 22 hrs; type: functional
[8] = Cytotoxicity against human HepG2 cells assessed as decrease in cell viability after 40 hrs by Celltiter Glo assay
Acinetobacter baumannii [9] = assay: Antibacterial activity against Acinetobacter baumannii BM4652 harboring adeABC/adeIJK deletion mutant after 20 to 22 hrs; type: functional
Klebsiella pneumoniae [10] = assay: Antibacterial activity against tolC-deficient Klebsiella pneumoniae 1161486a after 20 to 22 hrs; type: functional
Acinetobacter baumannii [11] = assay: Antibacterial activity against Acinetobacter baumannii BM4454 after 20 to 22 hrs; type: functional
Klebsiella pneumoniae [12] = assay: Antibacterial activity against Klebsiella pneumoniae 1161486 after 20 to 22 hrs; type: functional
Staphylococcus aureus [13] = assay: Antibacterial activity against methicillin-resistant Staphylococcus aureus ATCC 33592 after 20 to 22 hrs in presence of 50% calf fetal serum; type: functional, organism-based
Staphylococcus aureus [14] = assay: Antibacterial activity against methicillin-resistant Staphylococcus aureus ATCC 33592 after 20 to 22 hrs in presence of 50% mouse serum; type: functional, organism-based
[15] = molecular target: T1, Muscarinic acetylcholine receptor M1 (Homo sapiens) (UniProt P11229); assay: Inhibition of M1 receptor (unknown origin) at 10 uM relative to control
T1 sequence (whole entry): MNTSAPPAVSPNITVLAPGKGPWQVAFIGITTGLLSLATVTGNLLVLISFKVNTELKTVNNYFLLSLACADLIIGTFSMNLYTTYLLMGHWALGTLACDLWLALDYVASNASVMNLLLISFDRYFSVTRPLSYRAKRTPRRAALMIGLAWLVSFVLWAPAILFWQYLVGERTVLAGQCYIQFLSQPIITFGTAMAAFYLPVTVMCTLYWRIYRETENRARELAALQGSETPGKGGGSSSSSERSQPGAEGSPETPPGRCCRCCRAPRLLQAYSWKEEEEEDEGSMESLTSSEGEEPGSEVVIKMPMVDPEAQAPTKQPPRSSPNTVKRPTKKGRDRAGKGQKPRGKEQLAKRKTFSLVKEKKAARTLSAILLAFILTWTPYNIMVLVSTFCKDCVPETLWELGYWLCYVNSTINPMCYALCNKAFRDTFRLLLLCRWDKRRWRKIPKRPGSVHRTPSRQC

[16] = molecular target: Muscarinic acetylcholine receptor M3 (Homo sapiens) (UniProt P20309); assay: Inhibition of M3 receptor (unknown origin) at 10 uM relative to control
Chain of Muscarinic acetylcholine receptor M3 (Homo sapiens) (P20309 whole entry, looked up): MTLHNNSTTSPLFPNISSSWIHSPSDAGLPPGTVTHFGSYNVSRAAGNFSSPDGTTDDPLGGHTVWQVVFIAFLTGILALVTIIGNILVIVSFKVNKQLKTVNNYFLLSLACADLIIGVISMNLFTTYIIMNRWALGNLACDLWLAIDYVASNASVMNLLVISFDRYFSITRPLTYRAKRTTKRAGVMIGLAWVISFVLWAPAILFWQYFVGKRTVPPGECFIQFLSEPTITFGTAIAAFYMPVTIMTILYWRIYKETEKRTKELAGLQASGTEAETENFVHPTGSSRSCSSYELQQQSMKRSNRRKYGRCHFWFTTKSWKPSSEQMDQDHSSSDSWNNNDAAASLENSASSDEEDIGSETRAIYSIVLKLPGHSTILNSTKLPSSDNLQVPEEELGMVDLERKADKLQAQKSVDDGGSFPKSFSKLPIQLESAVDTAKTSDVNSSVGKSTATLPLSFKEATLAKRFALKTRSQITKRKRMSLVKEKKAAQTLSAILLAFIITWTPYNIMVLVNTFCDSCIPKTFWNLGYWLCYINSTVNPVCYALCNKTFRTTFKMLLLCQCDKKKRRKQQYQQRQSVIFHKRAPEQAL

[17] = Thermodynamic aqueous solubility of the compound at pH 7.4; settings: aqueous solution
[18] = Apparent permeability across human Caco2 cells; settings: Caco-2
[19] = Drug metabolism in human liver microsomes at 5 uM after 20 mins in presence of NADPH; type: ADME, microsome; settings: read-out: Drug metabolism
[20] = Drug metabolism in mouse liver microsomes at 5 uM after 20 mins in presence of NADPH; type: ADME, microsome; settings: read-out: Drug metabolism
[21] = Drug metabolism in rat liver microsomes at 5 uM after 20 mins in presence of NADPH; type: ADME, microsome; settings: read-out: Drug metabolism
Cytochrome P450 3A4 [22] = molecular target: T2, Cytochrome P450 3A4 (Homo sapiens, UniProt P08684); assay: Inhibition of CYP3A4-mediated midazolam metabolism in human liver microsomes
T2 sequence (P08684 whole entry): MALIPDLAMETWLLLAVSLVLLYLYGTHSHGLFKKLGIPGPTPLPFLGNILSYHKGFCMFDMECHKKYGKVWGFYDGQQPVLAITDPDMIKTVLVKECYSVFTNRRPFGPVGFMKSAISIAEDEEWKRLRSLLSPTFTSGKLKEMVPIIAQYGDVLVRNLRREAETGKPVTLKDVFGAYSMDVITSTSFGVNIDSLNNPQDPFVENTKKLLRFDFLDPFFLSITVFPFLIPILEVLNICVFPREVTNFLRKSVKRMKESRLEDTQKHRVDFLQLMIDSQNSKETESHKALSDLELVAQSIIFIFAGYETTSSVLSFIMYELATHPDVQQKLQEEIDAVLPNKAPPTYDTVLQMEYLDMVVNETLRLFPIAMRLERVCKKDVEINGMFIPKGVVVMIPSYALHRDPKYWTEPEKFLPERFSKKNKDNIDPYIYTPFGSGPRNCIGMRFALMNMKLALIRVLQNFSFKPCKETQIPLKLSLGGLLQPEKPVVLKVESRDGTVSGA

Cytochrome P450 3A4 [23] = molecular target: T2, Cytochrome P450 3A4; assay: Inhibition of CYP3A4-mediated testosterone metabolism in human liver microsomes
[24] = molecular target: Voltage-gated inwardly rectifying potassium channel KCNH2 (Homo sapiens, UniProt Q12809); assay: Inhibition of human ERG transfected in CHO cells by patch clamp method
Chain of Voltage-gated inwardly rectifying potassium channel KCNH2 (Q12809 whole entry): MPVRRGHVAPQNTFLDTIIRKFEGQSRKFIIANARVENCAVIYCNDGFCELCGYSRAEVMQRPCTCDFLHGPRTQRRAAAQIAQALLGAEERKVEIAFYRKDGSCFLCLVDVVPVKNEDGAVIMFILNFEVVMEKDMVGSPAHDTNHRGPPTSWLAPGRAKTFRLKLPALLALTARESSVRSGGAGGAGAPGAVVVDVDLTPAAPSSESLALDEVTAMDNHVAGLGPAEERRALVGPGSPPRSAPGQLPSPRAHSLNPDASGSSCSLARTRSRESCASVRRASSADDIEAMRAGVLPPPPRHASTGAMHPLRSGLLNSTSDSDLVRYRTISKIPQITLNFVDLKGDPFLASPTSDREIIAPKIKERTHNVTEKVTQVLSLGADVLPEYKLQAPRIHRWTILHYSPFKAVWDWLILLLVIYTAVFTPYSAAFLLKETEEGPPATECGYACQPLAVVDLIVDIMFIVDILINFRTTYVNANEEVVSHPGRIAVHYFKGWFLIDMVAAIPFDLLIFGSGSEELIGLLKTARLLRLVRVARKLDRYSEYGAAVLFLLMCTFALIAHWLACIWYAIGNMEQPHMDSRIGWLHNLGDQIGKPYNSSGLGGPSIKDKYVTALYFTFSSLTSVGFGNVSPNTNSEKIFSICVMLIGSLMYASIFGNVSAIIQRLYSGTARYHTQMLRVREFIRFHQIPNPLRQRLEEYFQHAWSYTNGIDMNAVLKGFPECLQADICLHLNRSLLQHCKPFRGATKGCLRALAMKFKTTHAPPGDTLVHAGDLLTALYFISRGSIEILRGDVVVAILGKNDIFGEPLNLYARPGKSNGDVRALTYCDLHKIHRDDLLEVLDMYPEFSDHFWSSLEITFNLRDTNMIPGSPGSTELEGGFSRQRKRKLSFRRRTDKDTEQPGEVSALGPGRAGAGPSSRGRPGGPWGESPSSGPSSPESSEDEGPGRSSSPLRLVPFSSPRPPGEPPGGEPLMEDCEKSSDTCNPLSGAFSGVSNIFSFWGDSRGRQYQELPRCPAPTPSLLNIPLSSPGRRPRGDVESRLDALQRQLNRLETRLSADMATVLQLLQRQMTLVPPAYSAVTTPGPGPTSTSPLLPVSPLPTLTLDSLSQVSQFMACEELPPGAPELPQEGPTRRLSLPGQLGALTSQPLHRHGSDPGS

[25] = Metabolic stability in mouse plasma at 1 uM after 4 hrs; type: ADME, cell-free; settings: read-out: Stability
[26] = Metabolic stability in rat plasma at 1 uM after 4 hrs; type: ADME, cell-free; settings: read-out: Stability
L5178Y [27] = assay: Genotoxicity in mouse L5178Y cells after 23 hrs in absence of S9 fraction by micronucleus test; type: toxicity, cell-based
L5178Y [28] = assay: Genotoxicity in mouse L5178Y cells after 3 hrs in presence of S9 fraction by micronucleus test; type: toxicity, cell-based; settings: s9, 3 h
Mus musculus [29] = assay: Toxicity in Swiss mouse at 30 mg/kg, iv bid administered as bolus dose every 2 hrs measured daily for 5 days; type: organism-based; settings: in vivo, 120 h
Escherichia coli [30] = assay: Antibacterial activity against Escherichia coli ATCC 35218 in Swiss mouse septicemia model assessed as mouse survival at 15 mg/kg, iv bid administered at 1 and 3 hrs post infection measured at 96 hrs relative to vehicle-treated control; type: functional; settings: ATCC 35218, iv
Escherichia coli [31] = assay: Antibacterial activity against Escherichia coli ATCC 35218 in Swiss mouse septicemia model assessed as mouse survival at 30 mg/kg, iv bid administered at 1 and 3 hrs post infection measured at 96 hrs relative to vehicle-treated control; type: functional; settings: ATCC 35218, iv
Escherichia coli [32] = assay: Antibacterial activity against Escherichia coli ATCC 35218 in Swiss mouse septicemia model assessed as decrease in bacterial burden in blood at 15 mg/kg, iv bid administered at 1 and 3 hrs post infection measured at 4 hrs relative to vehicle-treated control; type: functional
Escherichia coli [33] = assay: Antibacterial activity against Escherichia coli ATCC 35218 in Swiss mouse septicemia model assessed as decrease in bacterial burden in blood at 30 mg/kg, iv bid administered at 1 and 3 hrs post infection measured at 4 hrs relative to vehicle-treated control; type: functional
[34] = Protein binding in mouse plasma by equilibrium dialysis method; type: ADME, cell-free; settings: read-out: PPB (converted)
[35] = AUC (0 to last) in Swiss mouse plasma at 30 mg/kg, iv administered as single bolus dose by LC-MS/MS method; type: ADME, organism-based; set-up: dose 30 mg/kg, route intravenous, time 0 - last
[36] = Half life in Swiss mouse plasma at 30 mg/kg, iv administered as single bolus dose by LC-MS/MS method; type: ADME, organism-based
[37] = Unbound concentration in Swiss mouse plasma at 30 mg/kg, iv administered as single bolus dose measured at 5 mins by LC-MS/MS method; type: ADME, organism-based; settings: in vivo
[38] = Drug uptake in Swiss mouse lung at 30 mg/kg, iv administered as single bolus dose by LC-MS/MS method; type: ADME, organism-based; settings: in vivo
[39] = Drug uptake in Swiss mouse liver at 30 mg/kg, iv administered as single bolus dose by LC-MS/MS method; type: ADME, organism-based; settings: in vivo
[40] = Drug uptake in Swiss mouse kidney at 30 mg/kg, iv administered as single bolus dose by LC-MS/MS method; type: ADME, organism-based; settings: in vivo
Mus musculus [41] = assay: Time during which free lung concentration exceeds in vitro MIC for Escherichia coli ATCC 35218 in Swiss mouse at 30 mg/kg, iv administered as single bolus dose by LC-MS/MS method; type: ADME, organism-based; settings: in vivo
Mus musculus [42] = assay: Time during which free liver concentration exceeds in vitro MIC for Escherichia coli ATCC 35218 in Swiss mouse at 30 mg/kg, iv administered as single bolus dose by LC-MS/MS method; type: ADME, organism-based; settings: in vivo
Mus musculus [43] = assay: Time during which free kidney concentration exceeds in vitro MIC for Escherichia coli ATCC 35218 in Swiss mouse at 30 mg/kg, iv administered as single bolus dose by LC-MS/MS method; type: ADME, organism-based; settings: in vivo

**Q.** For `N[C@H]1CCN(c2cc3c(cc2F)n2ncnc2c(=O)n3C2CC2)C1`, which MIC (Escherichia coli [1]) is on record?
**A.** 2 µg/mL (≈ 6.09 µM)

**Q.** What about the MIC (Escherichia coli [2]) of the same compound?
**A.** 4 µg/mL (≈ 12.2 µM)

**Q.** What about the MIC (Escherichia coli [3]) of the same compound?
**A.** < 0.125 µg/mL

**Q.** What about the MIC (Escherichia coli [4]) of the same compound?
**A.** 1 µg/mL (≈ 3.05 µM)

**Q.** What about the MIC (Pseudomonas aeruginosa [5]) of the same compound?
**A.** > 64 µg/mL

**Q.** And the MIC (Pseudomonas aeruginosa [6])?
**A.** 1 µg/mL (≈ 3.05 µM)

**Q.** What about the MIC (Staphylococcus aureus [7]) of the same compound?
**A.** 4 µg/mL (≈ 12.2 µM)

**Q.** What about the CC50 at 40 h [8] of the same compound?
**A.** > 30 µM

**Q.** What about the MIC (Acinetobacter baumannii [9]) of the same compound?
**A.** 4 µg/mL (≈ 12.2 µM)

**Q.** What about the MIC (Klebsiella pneumoniae [10]) of the same compound?
**A.** 0.5 µg/mL (≈ 1.52 µM)

**Q.** And the MIC (Acinetobacter baumannii [11])?
**A.** > 64 µg/mL

**Q.** What about the MIC (Klebsiella pneumoniae [12]) of the same compound?
**A.** 32 µg/mL (≈ 97.5 µM)

**Q.** And the Activity (Staphylococcus aureus [13])?
**A.** Active

**Q.** What about the Activity (Staphylococcus aureus [14]) of the same compound?
**A.** Active

**Q.** And the inhibition [15]?
**A.** 50 to 60%

**Q.** And the inhibition [16]?
**A.** 50 to 60%

**Q.** And the solubility thermodynamic [17]?
**A.** 926 µg/mL (≈ 2820 µM)

**Q.** What about the Papp [18] of the same compound?
**A.** 3.2 ×10⁻⁶ cm/s

**Q.** And the metabolised at 20 min, 5 µM [19]?
**A.** 0%

**Q.** What about the metabolised at 20 min, 5 µM [20] of the same compound?
**A.** 8%

**Q.** What about the metabolised at 20 min, 5 µM [21] of the same compound?
**A.** 8%

**Q.** What about the IC50 (Cytochrome P450 3A4 [22]) of the same compound?
**A.** > 30 µM

**Q.** What about the IC50 (Cytochrome P450 3A4 [23]) of the same compound?
**A.** > 30 µM

**Q.** And the IC50 [24]?
**A.** > 30 µM

**Q.** What about the remaining at 4 h, 1 µM [25] of the same compound?
**A.** 80 to 120%

**Q.** What about the remaining at 4 h, 1 µM [26] of the same compound?
**A.** 80 to 120%

**Q.** What about the Activity (L5178Y [27]) of the same compound?
**A.** Toxic

**Q.** What about the Activity (L5178Y [28]) of the same compound?
**A.** Toxic

**Q.** And the Activity (Mus musculus [29])?
**A.** Non-Toxic

**Q.** And the survival at 15 mg/kg (Escherichia coli [30])?
**A.** 0%

**Q.** What about the survival at 30 mg/kg (Escherichia coli [31]) of the same compound?
**A.** 30%

**Q.** And the Activity (Escherichia coli [32])?
**A.** 1.6 deltalog10CFU/ml

**Q.** And the Activity (Escherichia coli [33])?
**A.** 3.2 deltalog10CFU/ml

**Q.** What about the fraction unbound [34] of the same compound?
**A.** 0.38

**Q.** And the AUC(0-t) [35]?
**A.** 7200 ng·h/mL

**Q.** What about the half-life [36] of the same compound?
**A.** 1 h

**Q.** And the “Cp(f)” value [37]?
**A.** 2500 ng/mL

**Q.** What about the Drug uptake [38] of the same compound?
**A.** Active

**Q.** What about the Drug uptake [39] of the same compound?
**A.** Active

**Q.** What about the Drug uptake [40] of the same compound?
**A.** Active

**Q.** What about the Time (Mus musculus [41]) of the same compound?
**A.** 2 h

**Q.** And the Time (Mus musculus [42])?
**A.** 2 h

**Q.** And the Time (Mus musculus [43])?
**A.** 2 h
